Source: patent publication US20250122207A1, “AP2 ASSOCIATED KINASE 1 INHIBITORS AND USES THEREOF” (Satellos Bioscience Inc., priority 2023, published 2025)

Legend:
[1] = target: T1, AAK1 (amino acids T27-A365) (Homo sapiens, UniProt Q2M2I8); assay: AAK1 pSENs assay; format: biochemical; conditions: class symbols; read-out: AAK1 pSENs: EIC50
T1 construct: against AAK1 (amino acids T27-A365); 6His (N, cleaved yes)
Experimental: The recombinant proteins were independently expressed in Escherichia coli BL21(DE3) cells cultured in Luria-Bertani (LB) medium until OD600 reached 0.6-0.8, then cooled to 15° C. and supplemented with 0.5 mM isopropyl 1-thio-D-galactopyranoside (IPTG) induce protein expression 16 h. Cells were harvested and resuspended in lysis buffer (50 mM HEPES pH 7.5, 500 mM NaCl, 5 mM imidazole, 5% glycerol, 0.5 mM Tris (2-carboxyethyl) phosphine (TCEP), cOmplete Protease Inhibitor Tablet (Roche)) and lysed by microfludics high pressure homogenizer (UH-06, Union-Biotech). Proteins were purified using […] chromatography (His FF column, Bestchrom) and eluted stepwise in binding buffer with 20-300 mM imidazole. Removal of the hexahistidine tag was performed at 4° C. overnight using recombinant TEV protease and reacted with BirA to obtain the corresponding biotinylated-AAK1, BIKE or GAK proteins. Further separated in the reverse Strep column (Strep-Tactin® XT, IBA). The Biotin elution sample was collected containing untagged biotinylated protein was then purified by Ion-exchange chromatography (Mono Q 10/100 GL, Cytiva) and Size-exclusion chromatography (HiLoad 16/600 Superdex 200 pg, Cytiva). The pure protein was stored in a storage buffer 50 mM HEPES (pH 7.5), 300 mM NaCl, 5% glycerol at −80° C. Protein were characterized by SDS-PAGE, LC-MS and aSEC.
This example describes one illustrative method for determining the IC50 of the compounds of the present invention against AAK1 (amino acids T27-A365). AAK1 protein was dissolved at 20 nM in 1× enzyme solution (50 mM HEPES pH7.5, 10 mM MgCl2, 1 mM DTT, 1% glycerol, 0.5 mM EGTA, 0.01% Briji35, 0.02% BSA) and 12.5 ul was incubated with 250 nl DMSO or 250 nl compound in DMSO at 25° C. for 15 min. The reaction was started by addition of 12.5 ul of 30 uM AQT0759 (Assayquant, CSKS-AQT0759B) and 70 uM ATP which were diluted in 1× substrate dilution buffer (50 mM HEPES pH7.5, 10 mM MgCl2, 1 mM DTT, 1% glycerol, 0.5 mM EGTA, 0.01% Briji35).

[2] = target: AAK1 (Homo sapiens, UniProt Q2M2I8); assay: pAP2M1 cell-based assay (in-cell Western); conditions: Hela cells co-transfected with AP2M1 and AAK1, 3 hr treatment; class symbols; read-out: AAK1 In-cell Western: IC50
AAK1, sequence (Q2M2I8 whole entry): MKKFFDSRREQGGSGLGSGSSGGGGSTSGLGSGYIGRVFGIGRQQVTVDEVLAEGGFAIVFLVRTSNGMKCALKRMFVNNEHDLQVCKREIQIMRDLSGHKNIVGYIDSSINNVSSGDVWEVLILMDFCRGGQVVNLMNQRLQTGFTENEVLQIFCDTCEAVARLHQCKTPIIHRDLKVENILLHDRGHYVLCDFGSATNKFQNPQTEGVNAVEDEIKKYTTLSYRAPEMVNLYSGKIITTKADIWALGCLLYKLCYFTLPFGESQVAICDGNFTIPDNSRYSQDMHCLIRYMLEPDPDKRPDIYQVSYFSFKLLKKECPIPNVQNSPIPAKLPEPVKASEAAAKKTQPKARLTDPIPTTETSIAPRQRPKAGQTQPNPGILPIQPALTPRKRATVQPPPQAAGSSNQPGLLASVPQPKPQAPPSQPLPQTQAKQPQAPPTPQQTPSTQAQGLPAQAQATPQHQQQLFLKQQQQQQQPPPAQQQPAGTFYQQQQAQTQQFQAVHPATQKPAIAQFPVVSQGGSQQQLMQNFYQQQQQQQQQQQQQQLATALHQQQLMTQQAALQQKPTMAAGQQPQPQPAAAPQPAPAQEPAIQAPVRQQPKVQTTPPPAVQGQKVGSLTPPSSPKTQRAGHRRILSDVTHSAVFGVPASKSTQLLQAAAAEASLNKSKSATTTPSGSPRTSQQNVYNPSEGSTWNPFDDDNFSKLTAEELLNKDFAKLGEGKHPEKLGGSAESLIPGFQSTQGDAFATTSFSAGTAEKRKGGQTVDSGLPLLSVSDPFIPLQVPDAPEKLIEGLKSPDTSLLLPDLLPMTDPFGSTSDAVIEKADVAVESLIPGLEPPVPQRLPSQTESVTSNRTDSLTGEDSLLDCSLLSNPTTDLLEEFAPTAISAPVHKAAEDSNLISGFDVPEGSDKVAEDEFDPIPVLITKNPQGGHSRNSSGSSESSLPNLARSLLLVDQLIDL
Excerpt: pAP2M1 Cell-Based Assay (in-Cell Western):
The plate was read on Licor Odyssey CLx imaging system (LICOR) to acquire fluorescence intensity at 700 channel and 800 channel.
Data analysis: Fluorescence intensity at 700 channel served as internal standard and 800 channel were normalized with 700 channel.

T1 sequence (Q2M2I8 27-365): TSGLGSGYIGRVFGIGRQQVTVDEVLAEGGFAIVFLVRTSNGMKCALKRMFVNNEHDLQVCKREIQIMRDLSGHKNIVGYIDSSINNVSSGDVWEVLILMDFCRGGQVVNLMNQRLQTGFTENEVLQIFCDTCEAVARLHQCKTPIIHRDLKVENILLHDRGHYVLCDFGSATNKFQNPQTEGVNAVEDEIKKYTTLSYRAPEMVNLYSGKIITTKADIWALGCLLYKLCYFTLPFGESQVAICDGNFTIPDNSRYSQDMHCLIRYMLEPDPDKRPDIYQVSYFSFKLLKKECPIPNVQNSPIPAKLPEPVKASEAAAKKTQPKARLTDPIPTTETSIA

Row | SMILES | IC50 [1] [nM] | IC50 [2] [nM]
1 | CC(C)(C)OC(=O)N1CC(Nc2ncccc2-c2cnn3ccc(N4CCN(C(=O)O[C@@H]5CNC(=O)C5)CC4)nc23)C1 [Compound I-48, [(3S)-5-oxopyrrolidin-3-yl]4-[3-[2-[(1-tert-butoxycarbonylazetidin-3-yl)amino]-3-pyridyl]pyrazolo[1,5-a]pyrimidin-5-yl]piperazine-1-carboxylate] | 501 to 1500 | > 1500
2 | O=C1C[C@H](OC(=O)N2CCN(c3ccn4ncc(-c5cccnc5NC5CNC5)c4n3)CC2)CN1 [Compound I-49, (S)-5-oxopyrrolidin-3-yl4-(3-(2-(azetidin-3-ylamino)pyridin-3-yl)pyrazolo[1,5-a]pyrimidin-5-yl)piperazine-1-carboxylate] | > 1500 | > 1500
3 | CN(C)CCN1CC[C@@](C)(OC(=O)N2CCN(c3ccn4ncc(-c5cccnc5OC5CC5)c4n3)CC2)C1 [Compound I-53, (R)-1-(2-(dimethylamino)ethyl)-3-(methylpyrrolidin-3-yl)-4-(3-(2-cyclopropoxypyridin-3-yl)pyrazolo[1,5-a]pyrimidin-5-yl)piperazine-1-carboxylate] | 1 to 50 | 151 to 500
4 | O=C1C[C@H](OC(=O)N[C@@H]2CCN(c3ccn4ncc(-c5cccnc5OC5CC5)c4n3)C2)CN1 [Compound I-54, [(3S)-5-oxopyrrolidin-3-yl]N-[(3R)-1-[3-[2-(cyclopropoxy)-3-pyridyl]pyrazolo[1,5-a]pyrimidin-5-yl]pyrrolidin-3-yl]carbamate] | 501 to 1500 | > 1500
5 | O=C1C[C@H](OC(=O)N[C@H]2CCN(c3ccn4ncc(-c5cccnc5OC5CC5)c4n3)C2)CN1 [Compound I-55, (S)-5-oxopyrrolidin-3-yl ((S)-1-(3-(2-cyclopropoxypyridin-3-yl)pyrazolo[1,5-a]pyrimidin-5-yl)pyrrolidin-3-yl)carbamate] | 151 to 500 | > 1500
6 | O=C(O[C@H]1CO[C@H]2OCC[C@H]21)N1CCN(c2ccn3ncc(-c4ccncn4)c3n2)CC1 [Compound I-67, [(3aS,4R,6aR)-2,3,3a,4,5,6a-hexahydrofuro[2,3-b]furan-4-yl]4-(3-pyrimidin-4-ylpyrazolo[1,5-a]pyrimidin-5-yl)piperazine-1-carboxylate] | 501 to 1500 | > 1500
7 | COC(=O)N1CC(Oc2ncccc2-c2cnn3ccc(N4CCN(C(=O)O[C@@H]5CC(=O)N(CCO)C5)CC4)nc23)C1 [Compound I-84, [(3R)-1-(2-hydroxyethyl)-5-oxo-pyrrolidin-3-yl]4-[3-[2-(1-methoxycarbonylazetidin-3-yl)oxy-3-pyridyl]pyrazolo[1,5-a]pyrimidin-5-yl]piperazine-1-carboxylate] | 151 to 500 | > 1500
8 | COC(=O)N1CC(Oc2ncccc2-c2cnn3ccc(N4CCN(C(=O)O[C@@H]5CC(=O)N(CCOCc6ccccc6)C5)CC4)nc23)C1 [Compound I-84-6, [(3R)-1-(2-benzyloxyethyl)-5-oxo-pyrrolidin-3-yl]-4-[3-[2-(1-methoxycarbonyl-azetidin-3-yl)oxy-3-pyridyl]pyrazolo[1,5-a]pyrimidin-5-yl]piperazine-1-carboxylate] | 151 to 500 | > 1500
9 | CN1C[C@@H](OC(=O)N2CCN(c3nc4c(-c5cccnc5OC5CC5)cnn4cc3O)CC2)CC1=O [Compound I-110, [(3S)-1-methyl-5-oxo-pyrrolidin-3-yl]-4-[3-[2-(cyclopropoxy)-3-pyridyl]-6-hydroxy-pyrazolo[1,5-a]pyrimidin-5-yl]piperazine-1-carboxylate] | > 1500 | > 1500

Now from value to compound:

Row | IC50 [1] [nM] | IC50 [2] [nM] | SMILES
10 | > 1500 | > 1500 | CN1CC(Oc2ncccc2-c2cnn3ccc(N4CCN(C(=O)O[C@@H]5CNC(=O)C5)CC4)nc23)C1 [Compound I-44, (S)-5-Oxopyrrolidin-3-yl 4-(3-(2-((1-methylazetidin-3-yl)oxy)pyridin-3-yl)pyrazolo[1,5-a]pyrimidin-5-yl)piperazine-1-carboxylate]
11 | > 1500 | > 1500 | CC(C)Nc1ncccc1-c1cnn2ccc(N3CCN(C(=O)O[C@@H]4CNC(=O)C4)CC3)nc12 [Compound I-47, [(3S)-5-oxopyrrolidin-3-yl]4-[3-[2-(isopropylamino)-3-pyridyl]pyrazolo[1,5-a]pyrimidin-5-yl]piperazine-1-carboxylate]
12 | 151 to 500 | > 1500 | C[C@@]1(OC(=O)N[C@@H]2CCN(c3ccn4ncc(-c5cccnc5OC5CC5)c4n3)C2)CCNC1 [Compound I-56, (R)-3-methylpyrrolidin-3-yl ((R)-1-(3-(2-cyclopropoxypyridin-3-yl)pyrazolo[1,5-a]pyrimidin-5-yl)pyrrolidin-3-yl)carbamate]
13 | 51 to 150 | 501 to 1500 | O=C(O[C@H]1CO[C@H]2OCC[C@H]21)N1CCN(c2ccn3ncc(-c4ccccc4OC4CC4)c3n2)CC1 [Compound I-68, [(3aS,4R,6aR)-2,3,3a,4,5,6a-hexahydrofuro[2,3-b]furan-4-yl]4-[3-[2-(cyclopropoxy)phenyl]pyrazolo[1,5-a]pyrimidin-5-yl]piperazine-1-carboxylate]
14 | 1 to 50 | 501 to 1500 | COC(=O)N1CC(Oc2ncccc2-c2cnn3ccc(N4CCN(C(=O)O[C@@H]5CC(=O)N(C)C5)CC4)nc23)C1 [Compound I-83, [(3R)-1-methyl-5-oxo-pyrrolidin-3-yl]4-[3-[2-(1-methoxycarbonylazetidin-3-yl)oxy-3-pyridyl]pyrazolo[1,5-a]pyrimidin-5-yl]piperazine-1-carboxylate]
15 | 501 to 1500 | > 1500 | COC(=O)N1CC(Oc2ncccc2-c2cnn3ccc(N4CCN(C(=O)O[C@@H]5CC(=O)N(C6COC6)C5)CC4)nc23)C1 [Compound I-85, [(3R)-1-(oxetan-3-yl)-5-oxo-pyrrolidin-3-yl]-4-[3-[2-(1-methoxycarbonylazetidin-3-yl)oxy-3-pyridyl]pyrazolo[1,5-a]pyrimidin-5-yl]piperazine-1-carboxylate]
16 | > 1500 | > 1500 | Cc1nn2ccc(N3CCN(C(=O)O[C@H]4CC(=O)N(C)C4)CC3)nc2c1-c1cccnc1OC1CC1 [Compound I-108, [(3S)-1-methyl-5-oxo-pyrrolidin-3-yl]-4-[3-[2-(cyclopropoxy)-3-pyridyl]-2-methyl-pyrazolo[1,5-a]pyrimidin-5-yl]piperazine-1-carboxylate]
17 | > 1500 | > 1500 | COc1cn2ncc(-c3cccnc3OC3CC3)c2nc1N1CCN(C(=O)O[C@H]2CC(=O)N(C)C2)CC1 [Compound I-110-9, [(3S)-1-methyl-5-oxo-pyrrolidin-3-yl]-4-[3-[2-(cyclopropoxy)-3-pyridyl]-6-methoxy-pyrazolo[1,5-a]pyrimidin-5-yl]piperazine-1-carboxylate]
18 | 501 to 1500 | > 1500 | Cc1cn2ncc(-c3cccnc3OC3CC3)c2nc1N1CCN(C(=O)O[C@H]2CC(=O)N(C)C2)CC1 [Compound I-111, [(3S)-1-methyl-5-oxo-pyrrolidin-3-yl]-4-[3-[2-(cyclopropoxy)-3-pyridyl]-6-methyl-pyrazolo[1,5-a]pyrimidin-5-yl]piperazine-1-carboxylate]
19 | 151 to 500 | > 1500 | CN1C[C@@H](OC(=O)N2CCN(c3nc4c(-c5cccnc5OC5CCCCC5)cnn4cc3F)CC2)CC1=O [Compound I-123, [(3S)-1-methyl-5-oxo-pyrrolidin-3-yl]-4-[3-[2-(cyclohexoxy)-3-pyridyl]-6-fluoro-pyrazolo[1,5-a]pyrimidin-5-yl]piperazine-1-carboxylate]
